Measurements published in patent publication US11919901B2 (Syndax Pharmaceuticals, Inc., priority 2021, dated 2024).

Columns and labels:
hERG = hERG (Homo sapiens (Human), UniProt Q12809); assay: Patch clamp assay (hERG tail currents, whole-cell); assay type: cell-based; details: hERG transfected HEK 293 cells; for hERG % Remaining 10 μM: 10 μM compound; for hERG % Remaining 30 μM: 30 μM compound
Method: The 35 mm culture dishes upon which cells were seeded at a density allowing single cells to be recorded were placed on the dish holder of the microscope and continuously perfused (at approximately 1 mL/min) with the bath solution described in section 4.6. All solutions applied to cells including the pipette solution were maintained at room temperature (19° C. to 30° C.). After formation of a Gigaohm seal between the patch electrodes and individual hERG stably transfected HEK 293 cells (pipette resistance range: 2.0 MΩ2 to 7.0 MΩ; seal resistance range: >1GΩ) the cell membrane across the pipette tip was ruptured to assure electrical access to the cell interior (whole-cell patch-configuration). In case the quality of the seal was poor, the process of seal formation was repeated with a different cell and a new pipette. As soon as a stable seal could be established, hERG outward tail currents were measured upon depolarization of the cell membrane to +20 mV for 2s (activation of channels) from a holding potential of −80 mV and upon subsequent repolarization to −40 mV for 3 s. This voltage protocol (as shown below) was run at least 10 times at intervals of 10 s. If current density was judged to be too low for measurement, another cell was recorded.
During wash-in of the test item the voltage protocol indicated above was run continuously again at 10 s intervals until the steady-state level of block was reached.
The IC50 was determined by fitting the dose response curve with a 2-parameter logistic function (amax=100%).

Menin-MLL = Menin-MLL (Homo sapiens (Human), UniProt O00255); assay: Determination of binding constants (Ki) to Menin-MLL (HTRF); details: HTRF, 0.25 nM H-FL-Menin, 3.2 nM FITC-MLL-4-43, 24 hr incubation; for Ki: read-out: Menin-MLL Ki HTRF Assay: Ki
Sequence of Menin-MLL (O00255 whole entry): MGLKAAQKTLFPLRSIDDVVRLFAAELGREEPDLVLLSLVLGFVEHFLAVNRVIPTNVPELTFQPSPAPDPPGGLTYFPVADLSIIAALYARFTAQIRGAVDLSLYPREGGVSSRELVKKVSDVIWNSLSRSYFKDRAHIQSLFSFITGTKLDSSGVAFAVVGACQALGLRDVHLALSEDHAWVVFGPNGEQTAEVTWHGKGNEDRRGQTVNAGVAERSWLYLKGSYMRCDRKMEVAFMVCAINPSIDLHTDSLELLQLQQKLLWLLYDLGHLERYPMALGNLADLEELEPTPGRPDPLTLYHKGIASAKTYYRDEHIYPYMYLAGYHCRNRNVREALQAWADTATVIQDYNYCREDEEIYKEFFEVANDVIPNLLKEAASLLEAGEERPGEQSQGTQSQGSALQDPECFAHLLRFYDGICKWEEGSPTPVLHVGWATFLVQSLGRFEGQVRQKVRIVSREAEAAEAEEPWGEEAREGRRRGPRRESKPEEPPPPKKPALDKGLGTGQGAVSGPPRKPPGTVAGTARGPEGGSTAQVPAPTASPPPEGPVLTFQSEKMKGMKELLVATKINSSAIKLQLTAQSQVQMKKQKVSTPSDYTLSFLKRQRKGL

Sequence of hERG (Q12809 whole entry): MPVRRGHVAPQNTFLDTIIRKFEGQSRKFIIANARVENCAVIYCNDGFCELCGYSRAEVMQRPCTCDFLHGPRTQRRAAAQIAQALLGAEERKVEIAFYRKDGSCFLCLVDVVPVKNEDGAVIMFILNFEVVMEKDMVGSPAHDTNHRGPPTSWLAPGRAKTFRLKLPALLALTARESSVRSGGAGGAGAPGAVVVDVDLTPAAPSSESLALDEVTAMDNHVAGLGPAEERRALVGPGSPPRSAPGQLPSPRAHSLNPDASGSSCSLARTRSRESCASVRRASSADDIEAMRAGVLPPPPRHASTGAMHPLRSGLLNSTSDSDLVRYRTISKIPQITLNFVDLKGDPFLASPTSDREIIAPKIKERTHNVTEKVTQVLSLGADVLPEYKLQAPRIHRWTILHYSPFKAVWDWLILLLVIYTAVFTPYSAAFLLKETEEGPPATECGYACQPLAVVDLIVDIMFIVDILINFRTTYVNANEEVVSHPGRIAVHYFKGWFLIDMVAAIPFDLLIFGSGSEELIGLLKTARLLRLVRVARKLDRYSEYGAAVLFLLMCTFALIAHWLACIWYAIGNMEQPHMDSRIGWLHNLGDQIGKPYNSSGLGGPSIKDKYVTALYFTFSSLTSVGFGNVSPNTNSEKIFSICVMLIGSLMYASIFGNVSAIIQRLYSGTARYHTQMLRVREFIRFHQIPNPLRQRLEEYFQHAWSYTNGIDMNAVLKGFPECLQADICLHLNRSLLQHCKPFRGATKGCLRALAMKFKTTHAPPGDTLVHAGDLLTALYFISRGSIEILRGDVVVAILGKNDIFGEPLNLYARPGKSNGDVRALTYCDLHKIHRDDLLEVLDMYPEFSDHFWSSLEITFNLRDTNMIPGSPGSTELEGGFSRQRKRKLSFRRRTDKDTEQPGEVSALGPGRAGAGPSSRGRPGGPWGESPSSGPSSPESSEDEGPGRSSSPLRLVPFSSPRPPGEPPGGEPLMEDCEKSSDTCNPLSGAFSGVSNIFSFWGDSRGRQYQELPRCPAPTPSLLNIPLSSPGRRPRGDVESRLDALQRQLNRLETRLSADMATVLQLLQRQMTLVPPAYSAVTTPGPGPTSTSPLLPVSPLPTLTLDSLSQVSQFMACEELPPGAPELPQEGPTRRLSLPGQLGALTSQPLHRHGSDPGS

CCN(C(=O)c1cc(F)ccc1Oc1cncnc1N1CC2(CCN(C[C@@H]3CC[C@@H](NS(=O)(=O)c4csc(C)n4)CO3)CC2)C1)C(C)C [Compound 71, N-Ethyl-5-fluoro-N-isopropyl-2-((4-(7-(((2S,5R)-5-((2-methylthiazole)-4-sulfonamido)tetrahydro-2H-pyran-2-yl)methyl)-2,7-diazaspiro[3.5]nonan-2-yl)pyrimidin-5-yl)oxy)benzamide]
hERG % Remaining 10 μM (hERG): +++ (“+++” means ≥66%)
hERG % Remaining 30 μM (hERG): ++ (“++” means ≥33% and <66%)
EC50 (Menin-MLL): < 50 nM
Ki (Menin-MLL): < 1 nM

CCN(C(=O)c1cc(F)ccc1Oc1cncnc1N1CC2(CCN(C[C@@H]3CC[C@@H](NS(=O)(=O)c4cnc(C)o4)CO3)CC2)C1)C(C)C [Compound 72, N-Ethyl-5-fluoro-N-isopropyl-2-((4-(7-(((2S,5R)-5-((2-methyloxazole)-5-sulfonamido)tetrahydro-2H-pyran-2-yl)methyl)-2,7-diazaspiro[3.5]nonan-2-yl)pyrimidin-5-yl)oxy)benzamide]
hERG % Remaining 10 μM (hERG): ++ (“++” means ≥33% and <66%)
hERG % Remaining 30 μM (hERG): + (“+” means <33%)
Ki (Menin-MLL): < 1 nM

CCN(C(=O)c1cc(F)ccc1Oc1cncnc1N1CC2(CCN(C[C@@H]3CC[C@@H](NS(=O)(=O)c4c[nH]c(=O)cc4C)CO3)CC2)C1)C(C)C [Compound 75, N-Ethyl-5-fluoro-N-isopropyl-2-((4-(7-(((2S,5R)-5-((4-methyl-6-oxo-1,6-dihydropyridine)-3-sulfonamido)tetrahydro-2H-pyran-2-yl)methyl)-2,7-diazaspiro[3.5]nonan-2-yl)pyrimidin-5-yl)oxy)benzamide]
hERG % Remaining 30 μM (hERG): +++ (“+++” means ≥66%)
Ki (Menin-MLL): < 1 nM

CCN(C(=O)c1cc(F)ccc1Oc1cncnc1N1CC2(CCN(C[C@@H]3CC[C@@H](NS(=O)(=O)NC)CO3)CC2)C1)C(C)C [Compound 76, N-Ethyl-5-fluoro-N-isopropyl-2-((4-(7-(((2S,5R)-5-((N-methylsulfamoyl)amino)tetrahydro-2H-pyran-2-yl)methyl)-2,7-diazaspiro[3.5]nonan-2-yl)pyrimidin-5-yl)oxy)benzamide]
hERG % Remaining 10 μM (hERG): +++ (“+++” means ≥66%)
hERG % Remaining 30 μM (hERG): +++ (“+++” means ≥66%)
EC50 (Menin-MLL): < 50 nM
Ki (Menin-MLL): < 1 nM

CC(C)N(C(=O)c1cc(F)ccc1Oc1cncnc1N1CC2(CCN(C[C@@H]3CC[C@@H](NS(=O)(=O)N4CCOCC4)CO3)CC2)C1)C(C)C [Compound 78, 5-Fluoro-N,N-diisopropyl-2-((4-(7-(((2S,5R)-5-(morpholine-4-sulfonamido)tetrahydro-2H-pyran-2-yl)methyl)-2,7-diazaspiro[3.5]nonan-2-yl)pyrimidin-5-yl)oxy)benzamide]
hERG % Remaining 10 μM (hERG): +++ (“+++” means ≥66%)
hERG % Remaining 30 μM (hERG): +++ (“+++” means ≥66%)
EC50 (Menin-MLL): < 50 nM
Ki (Menin-MLL): < 1 nM

Cc1ncc(S(=O)(=O)N[C@@H]2CC[C@@H](CN3CCC4(CC3)CN(c3ncncc3Oc3ccc(F)cc3C(=O)N(C(C)C)C(C)C)C4)OC2)o1 [Compound 80, 5-Fluoro-N,N-diisopropyl-2-((4-(7-(((2S,5R)-5-((2-methyloxazole)-5-sulfonamido)tetrahydro-2H-pyran-2-yl)methyl)-2,7-diazaspiro[3.5]nonan-2-yl)pyrimidin-5-yl)oxy)benzamide]
hERG % Remaining 10 μM (hERG): ++ (“++” means ≥33% and <66%)
hERG % Remaining 30 μM (hERG): + (“+” means <33%)
Ki (Menin-MLL): < 1 nM

Cc1nc(S(=O)(=O)N[C@@H]2CC[C@@H](CN3CCC4(CC3)CN(c3ncncc3Oc3ccc(F)cc3C(=O)N(C(C)C)C(C)C)C4)OC2)cs1 [Compound 81, 5-Fluoro-N,N-diisopropyl-2-((4-(7-(((2S,5R)-5-((2-methylthiazole)-4-sulfonamido)tetrahydro-2H-pyran-2-yl)methyl)-2,7-diazaspiro[3.5]nonan-2-yl)pyrimidin-5-yl)oxy)benzamide]
hERG % Remaining 10 μM (hERG): ++ (“++” means ≥33% and <66%)
hERG % Remaining 30 μM (hERG): ++ (“++” means ≥33% and <66%)
Ki (Menin-MLL): < 1 nM

CC(C)N(C(=O)c1cc(F)ccc1Oc1cncnc1N1CC2(CCN(C[C@@H]3CC[C@@H](NS(=O)(=O)c4cnn(C)c4Cl)CO3)CC2)C1)C(C)C [Compound 82, 2-((4-(7-(((2S,5R)-5-((5-Chloro-1-methyl-1H-pyrazole)-4-sulfonamido)tetrahydro-2H-pyran-2-yl)methyl)-2,7-diazaspiro[3.5]nonan-2-yl)pyrimidin-5-yl)oxy)-5-fluoro-N,N-diisopropylbenzamide]
hERG % Remaining 10 μM (hERG): ++ (“++” means ≥33% and <66%)
hERG % Remaining 30 μM (hERG): + (“+” means <33%)
Ki (Menin-MLL): < 1 nM

CC(C)N(C(=O)c1cc(F)ccc1Oc1cncnc1N1CC2(CCN(C[C@@H]3CC[C@@H](NS(=O)(=O)c4cnn(C5CC5)c4)CO3)CC2)C1)C(C)C [Compound 83, 2-((4-(7-(((2S,5R)-5-((1-Cyclopropyl-1H-pyrazole)-4-sulfonamido)tetrahydro-2H-pyran-2-yl)methyl)-2,7-diazaspiro[3.5]nonan-2-yl)pyrimidin-5-yl)oxy)-5-fluoro-N,N-diisopropylbenzamide]
hERG % Remaining 10 μM (hERG): +++ (“+++” means ≥66%)
hERG % Remaining 30 μM (hERG): ++ (“++” means ≥33% and <66%)
Ki (Menin-MLL): < 1 nM

Cc1ncc(S(=O)(=O)N[C@@H]2CC[C@@H](CN3CCC4(CC3)CN(c3ncncc3Oc3ccc(F)cc3C(=O)N(C(C)C)C(C)C)C4)OC2)s1 [Compound 84, 5-Fluoro-N,N-diisopropyl-2-((4-(7-(((2S,5R)-5-((2-methylthiazole)-5-sulfonamido)tetrahydro-2H-pyran-2-yl)methyl)-2,7-diazaspiro[3.5]nonan-2-yl)pyrimidin-5-yl)oxy)benzamide]
hERG % Remaining 10 μM (hERG): ++ (“++” means ≥33% and <66%)
hERG % Remaining 30 μM (hERG): + (“+” means <33%)
Ki (Menin-MLL): < 1 nM

CC(C)N(C(=O)c1cc(F)ccc1Oc1cncnc1N1CC2(CCN(C[C@@H]3CC[C@@H](NS(=O)(=O)c4cnn(C(F)F)c4)CO3)CC2)C1)C(C)C [Compound 85, 2-((4-(7-(((2S,5R)-5-((1-(Difluoromethyl)-1H-pyrazole)-4-sulfonamido)tetrahydro-2H-pyran-2-yl)methyl)-2,7-diazaspiro[3.5]nonan-2-yl)pyrimidin-5-yl)oxy)-5-fluoro-N,N-diisopropylbenzamide]
hERG % Remaining 10 μM (hERG): ++ (“++” means ≥33% and <66%)
hERG % Remaining 30 μM (hERG): + (“+” means <33%)
Ki (Menin-MLL): < 1 nM

CC(C)N(C(=O)c1cc(F)ccc1Oc1cncnc1N1CC2(CCN(C[C@@H]3CC[C@@H](NS(=O)(=O)c4cnn(C)c4)CO3)CC2)C1)C(C)C [Compound 86, 5-Fluoro-N,N-diisopropyl-2-((4-(7-(((2S,5R)-5-((1-methyl-1H-pyrazole)-4-sulfonamido)tetrahydro-2H-pyran-2-yl)methyl)-2,7-diazaspiro[3.5]nonan-2-yl)pyrimidin-5-yl)oxy)benzamide]
hERG % Remaining 10 μM (hERG): +++ (“+++” means ≥66%)
hERG % Remaining 30 μM (hERG): +++ (“+++” means ≥66%)
IC50 (hERG): ≥ 50000 nM
Ki (Menin-MLL): < 1 nM

CC(C)N(C(=O)c1cc(F)ccc1Oc1cncnc1N1CC2(CCN(C[C@@H]3CC[C@@H](NS(=O)(=O)c4ccn(C)n4)CO3)CC2)C1)C(C)C [Compound 87, 5-Fluoro-N,N-diisopropyl-2-((4-(7-(((2S,5R)-5-((1-methyl-1H-pyrazole)-3-sulfonamido)tetrahydro-2H-pyran-2-yl)methyl)-2,7-diazaspiro[3.5]nonan-2-yl)pyrimidin-5-yl)oxy)benzamide]
hERG % Remaining 30 μM (hERG): +++ (“+++” means ≥66%)
Ki (Menin-MLL): < 1 nM

CC(C)N(C(=O)c1cc(F)ccc1Oc1cncnc1N1CC2(CCN(C[C@@H]3CC[C@@H](NS(=O)(=O)N4CCC4)CO3)CC2)C1)C(C)C [Compound 88, 2-((4-(7-(((2S,5R)-5-(Azetidine-1-sulfonamido)tetrahydro-2H-pyran-2-yl)methyl)-2,7-diazaspiro[3.5]nonan-2-yl)pyrimidin-5-yl)oxy)-5-fluoro-N,N-diisopropylbenzamide]
hERG % Remaining 30 μM (hERG): +++ (“+++” means ≥66%)
Ki (Menin-MLL): < 1 nM

CC(C)N(C(=O)c1cc(F)ccc1Oc1cncnc1N1CC2(CCN(C[C@@H]3CC[C@@H](NS(=O)(=O)N(C)C(C)C)CO3)CC2)C1)C(C)C [Compound 89, 5-Fluoro-N,N-diisopropyl-2-((4-(7-(((2S,5R)-5-((N-isopropyl-N-methylsulfamoyl)amino)tetrahydro-2H-pyran-2-yl)methyl)-2,7-diazaspiro[3.5]nonan-2-yl)pyrimidin-5-yl)oxy)benzamide]
hERG % Remaining 30 μM (hERG): ++ (“++” means ≥33% and <66%)
Ki (Menin-MLL): < 1 nM

CC(C)N(C(=O)c1cc(F)ccc1Oc1cncnc1N1CC2(CCN(C[C@@H]3CC[C@@H](NS(N)(=O)=O)CO3)CC2)C1)C(C)C [Compound 90, 5-Fluoro-N,N-diisopropyl-2-((4-(7-(((2S,5R)-5-(sulfamoylamino)tetrahydro-2H-pyran-2-yl)methyl)-2,7-diazaspiro[3.5]nonan-2-yl)pyrimidin-5-yl)oxy)benzamide]
hERG % Remaining 10 μM (hERG): +++ (“+++” means ≥66%)
hERG % Remaining 30 μM (hERG): +++ (“+++” means ≥66%)
Ki (Menin-MLL): < 1 nM

Cc1nc(S(=O)(=O)N[C@@H]2CC[C@@H](CN3CCC4(CC3)CN(c3ncncc3Oc3ccc(F)cc3C(=O)N(C(C)C)C(C)C)C4)OC2)co1 [Compound 91, 5-Fluoro-N,N-diisopropyl-2-((4-(7-(((2S,5R)-5-((2-methyloxazole)-4-sulfonamido)tetrahydro-2H-pyran-2-yl)methyl)-2,7-diazaspiro[3.5]nonan-2-yl)pyrimidin-5-yl)oxy)benzamide]
hERG % Remaining 30 μM (hERG): ++ (“++” means ≥33% and <66%)
Ki (Menin-MLL): < 1 nM
